The target in one data set is human TLR8 (Homo sapiens (Human), UniProt Q9NR97). The data set can be described thus: HEK293-Blue-hTLR-8 cells assay. It is filed as cell-based. The conditions noted are these: HEK293-Blue-hTLR8 cells, R848 stimulation, 20 hrs, SEAP reporter; read-out: HEK/hTLR8 IC50. From the text: A stable HEK293-Blue-hTLR-8 cell line was purchased from InvivoGen (Cat. #: hkb-htlr8, San Diego, Calif., USA). These cells were originally designed for studying the stimulation of human TLR8 by monitoring the activation of NF-κB. A SEAP (secreted embryonic alkaline phosphatase) reporter gene was placed under the control of the IFN-β minimal promoter fused to five NF-κB and AP-1-binding sites. The SEAP was induced by activating NF-κB and AP-1 via stimulating HEK-Blue hTLR8 cells with TLR8 ligands. Therefore the reporter expression was declined by TLR8 antagonist under the stimulation of a ligand, such as R848, for incubation of 20 hrs. The cell culture supernatant SEAP reporter activity was determined using QUANTI-Blue™ kit (Cat. #: rep-gb1, Invivogen, San Diego, Ca, USA) at a wavelength of 640 nm, a detection medium that turns purple or blue in the presence of alkaline phosphatase.
Chain of human TLR8 (Q9NR97 27-1041): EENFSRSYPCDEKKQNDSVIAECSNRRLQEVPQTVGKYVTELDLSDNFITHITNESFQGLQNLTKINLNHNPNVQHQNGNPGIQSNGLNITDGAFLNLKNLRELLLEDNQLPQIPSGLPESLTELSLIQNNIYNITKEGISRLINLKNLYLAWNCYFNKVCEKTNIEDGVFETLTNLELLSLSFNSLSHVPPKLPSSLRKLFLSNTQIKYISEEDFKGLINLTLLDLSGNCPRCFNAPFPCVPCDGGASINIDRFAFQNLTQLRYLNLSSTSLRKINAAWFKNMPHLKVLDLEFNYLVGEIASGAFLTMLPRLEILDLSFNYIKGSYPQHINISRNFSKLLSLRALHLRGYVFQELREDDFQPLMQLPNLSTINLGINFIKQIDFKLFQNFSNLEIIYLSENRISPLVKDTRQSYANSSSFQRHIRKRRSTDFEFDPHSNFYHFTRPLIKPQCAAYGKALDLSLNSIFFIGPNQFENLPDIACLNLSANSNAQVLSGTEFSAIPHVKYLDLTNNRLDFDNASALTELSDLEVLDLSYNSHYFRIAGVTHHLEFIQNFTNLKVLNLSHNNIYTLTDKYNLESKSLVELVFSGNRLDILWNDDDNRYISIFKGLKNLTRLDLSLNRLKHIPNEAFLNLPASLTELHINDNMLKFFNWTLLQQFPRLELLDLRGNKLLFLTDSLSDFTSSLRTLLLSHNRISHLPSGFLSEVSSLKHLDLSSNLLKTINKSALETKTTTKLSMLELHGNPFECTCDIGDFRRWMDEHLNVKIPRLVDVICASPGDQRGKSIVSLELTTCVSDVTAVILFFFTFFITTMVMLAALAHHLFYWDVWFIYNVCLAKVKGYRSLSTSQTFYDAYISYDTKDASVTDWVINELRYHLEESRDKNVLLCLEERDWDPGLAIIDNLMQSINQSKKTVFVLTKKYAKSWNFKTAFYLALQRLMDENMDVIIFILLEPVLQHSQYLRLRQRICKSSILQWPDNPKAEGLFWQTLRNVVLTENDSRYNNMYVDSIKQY
HEK293-Blue-hTLR8 cells were incubated at a density of 250,000˜450,000 cells/mL in a volume of 170 μL in a 96-well plate in Dulbecco's Modified Eagle's medium (DMEM) containing 4.5 g/L glucose, 50 U/mL penicillin, […], […], 2 mM L-glutamine, 10% (v/v) heat-inactivated fetal bovine serum with addition of 20 μL test compound in a serial dilution in the presence of final DMSO at 1% and 10 μL of 60 uM R848 in above DMEM, perform incubation under 37° C. in a CO2 incubator for 20 hrs. Then 20 μL of the supernatant from each well was incubated with 180 μL Quanti-blue substrate solution at 37° C. for 2 hrs and the absorbance was read at 620655 nm using a spectrophotometer. The signaling pathway that TLR8 activation leads to downstream NF-κB activation has been widely accepted, and therefore similar reporter assay was modified for evaluating TLR8 antagonist.

Data set [1] can be described thus: Parallel Artificial Membrane Permeability Assay (PAMPA). The class given is in vitro ADME. Conditions: for Membrane Retention / Papp at 4 h: PAMPA, pH 7.40, 4 hours; for Papp at 4 h: pH 7.4, room temperature, read-out: PAMPA Pe; for PAMPA category: classified by Pe and membrane retention. The protocol: PAMPA (Parallel Artificial Membrane Permeability Assay) is a first-line permeability screen for drug candidates. This assay mimics the transcellular absorption conditions using an artificial phospholipid membrane and generates a permeability value that can be used for compound ranking and optimization as well as input parameters for in silico models to predict intestinal absorption.
Permeation experiments are carried out in hydrophobic PVDF 96-well microtiter filter plates (MultiScreen Filter Plate, Millipore, #MAIPN4550). Each well is coated with PVDF membrane, which is prepared with 5 μL Dodecane (Sigma, D221104) that contains 1% lecithin (Sigma, P3556-1G).
The typical PAMPA experimental protocol is as follows: The donor plate is placed on a Teflon acceptor plate that has been pre-filled with […] of 100 mM PBS buffer (2.6 g KH2PO4 and 18.5 g K2HPO4·3H2O are dissolved in about 1000 mL of ultra-pure water and mixed thoroughly. The pH is adjusted to 7.40±0.05, using either 1 M sodium hydroxide or 1M hydrochloric acid) containing 5% DMSO. The filter on the bottom of each acceptor well is filled with 300 μL of 100 mM PBS buffer (2.6 g KH2PO4 and 18.5 g K2HPO4·3H2O are dissolved in about 1000 mL of ultra-pure water, mixed thoroughly. The pH was adjusted to 7.40±0.05, using either 1 M sodium hydroxide or 1M hydrochloric acid). The resulting sandwich is incubated at room temperature under constant shaking (300 rpm) for 4 hours. The sandwich is then disassembled. Before incubation, spike 20 μL dosing solution and mix with 250 μL PBS and 130 μL quench solution (acetonitrile) as TO sample. After incubation, collect 270 μL solutions from acceptor chamber, followed by the addition of 130 μL acetonitrile. Collect 20 μL solution from donor chamber and add 250 μL PBS and 130 μL acetonitrile. The concentration of compound in all samples are determined by LC-MS/MS and the equations for determining the permeability (Pe, 10^−6 cm/s) are as follows.
VD is the volume of the donor well; VR is the volume of the acceptor well; Area is the active surface area of membrane; Time is the incubation time (14,400 s in this assay); CR and CD are the concentrations of compound in acceptor and donor solutions, respectively, at the completion of the assay; C0 is the concentration of compound in donor solution before incubation.
The main readout of the PAMPA assay is the permeability value Pe expressed in 10^−6 cm/s. Secondary readouts determined are the amounts of compound in the donor and acceptor compartments as well as compound retention in the membrane. Depending on the permeation rate and the membrane retention, compounds are classified as “low” (Pe<0.2 and membrane retention<20%) or “medium & high” (Pe>=0.2; or Pe<0.2 and membrane retention>=20%). Each sample is measured in triplicate; the standard deviation is determined for the permeation constant Pe.
Background: The PAMPA barrier holds no transporters, so it reflects passive diffusion.

Each structure is given as a SMILES string.

On to `Cc1cn2cc(-c3ccc(N4CCC(N5CC(C)(N)C5)CC4)nc3C(F)F)cc(C)c2n1` [Example 12, 1-[1-[6-(difluoromethyl)-5-(2,8-dimethylimidazo[1,2-a]pyridin-6-yl)-2-pyridyl]-4-piperidyl]-3-methyl-azetidin-3-amine], for which the IC50 at human TLR8 is 1.1 nM. Moreover, in data set [1], the “Membrane Retention” value is on record as 7.03%; the Papp at 4 h turned out to be 1 ×10⁻⁶ cm/s; the PAMPA category result was “medium & high (“medium & high” (Pe>=0.2; or Pe<0.2 and membrane retention>=20%))”.
`CCc1nc(N2CCC(N3C[C@@H](N)[C@H](OC)C3)CC2)ccc1-c1cc(C)c2nccn2c1` [Example 15, (3R,4R)-1-[1-[6-ethyl-5-(8-methylimidazo[1,2-a]pyridin-6-yl)-2-pyridyl]-4-piperidyl]-4-methoxy-pyrrolidin-3-amine]: the IC50 on human TLR8 is 0.3 nM.
`Cc1cc(-c2ccc(N3CCC(N4CCNCC4)CC3)nc2C(F)F)cn2ccnc12` [Example 10, 6-[2-(difluoromethyl)-6-(4-piperazin-1-yl-1-piperidyl)-3-pyridyl]-8-methyl-imidazo[1,2-a]pyridine]: the IC50 at human TLR8 stood at 2.8 nM. In addition, in data set [1], the “Membrane Retention” value was 17.7%; the Papp at 4 h is 0.81 ×10⁻⁶ cm/s; the PAMPA category entry was “medium & high (“medium & high” (Pe>=0.2; or Pe<0.2 and membrane retention>=20%))”.
Consider `Cc1cn2cc(-c3ccc(N4CCC(N)CC4)nc3C(C)C)cc(C)c2n1` [Example 4, 1-[5-(2,8-dimethylimidazo[1,2-a]pyridin-6-yl)-6-isopropyl-2-pyridyl]piperidin-4-amine], for which, at human TLR8, the IC50 amounted to 2.9 nM. Also, in data set [1], the “Membrane Retention” value is 17.52%; the Papp at 4 h worked out at 1.2 ×10⁻⁶ cm/s; the PAMPA category entry was “medium & high (“medium & high” (Pe>=0.2; or Pe<0.2 and membrane retention>=20%))”.
For `CCc1nc(N2CCC(N3CC4(CNCCO4)C3)CC2)ccc1-c1cc(C)c2nccn2c1` [Example 14, 2-[1-[6-ethyl-5-(8-methylimidazo[1,2-a]pyridin-6-yl)-2-pyridyl]-4-piperidyl]-5-oxa-2,8-diazaspiro[3.5]nonane], the IC50 at human TLR8 came to 0.4 nM.
Still for that read-out and setting: the value for `CCc1nc(N2CCC(N3C[C@@H](N)[C@H](OC)C3)CC2)ccc1-c1cc(C)c2nc(C)cn2c1` [Example 17, (3R,4R)-1-[1-[5-(2,8-dimethylimidazo[1,2-a]pyridin-6-yl)-6-ethyl-2-pyridyl]-4-piperidyl]-4-methoxy-pyrrolidin-3-amine] was 1 nM.
As to `CCc1nc(N2CCC(N3CCNCC3)CC2)ccc1-c1cc(C)c2nc(C)cn2c1` [Example 21, 6-[2-ethyl-6-(4-piperazin-1-yl-1-piperidyl)-3-pyridyl]-2,8-dimethyl-imidazo[1,2-a]pyridine], the IC50 at human TLR8 was found to be 3.6 nM. For the same compound, in data set [1], the “Membrane Retention” value is reported as 28%; the Papp at 4 h amounted to 0.73 ×10⁻⁶ cm/s; the PAMPA category entry was “medium & high (“medium & high” (Pe>=0.2; or Pe<0.2 and membrane retention>=20%))”.
Take `Cc1cn2cc(-c3ccc(N4CCC(N5CCNCC5)CC4)nc3C(C)C)cc(C)c2n1` [Example 3, 6-[2-isopropyl-6-(4-piperazin-1-yl-1-piperidyl)-3-pyridyl]-2,8-dimethyl-imidazo[1,2-a]pyridine]: the IC50 at human TLR8 stood at 1.2 nM. Besides, in data set [1], the “Membrane Retention” value was found to be 20.3%; the Papp at 4 h is 0.8 ×10⁻⁶ cm/s; the PAMPA category entry is “medium & high (“medium & high” (Pe>=0.2; or Pe<0.2 and membrane retention>=20%))”.
In the case of `CCc1nc(N2CCC(C)(N)CC2)ccc1-c1cc(C)c2nc(C)cn2c1` [Example 20, 1-[5-(2,8-dimethylimidazo[1,2-a]pyridin-6-yl)-6-ethyl-2-pyridyl]-4-methyl-piperidin-4-amine], the IC50 on human TLR8 stood at 41.8 nM.
For the compound `Cc1cn2cc(-c3ccc(N4CCN5CCNCC5C4)nc3C(C)C)cc(C)c2n1` (stereo not shown) [Example 8, 2-[5-(2,8-dimethylimidazo[1,2-a]pyridin-6-yl)-6-isopropyl-2-pyridyl]-1,3,4,6,7,8,9,9a-octahydropyrazino[1,2-a]pyrazine], the IC50 at human TLR8 was determined as 2.3 nM. Besides, in data set [1], the “Membrane Retention” value came to 34.49%; the Papp at 4 h was determined as 0.85 ×10⁻⁶ cm/s; the PAMPA category entry was “medium & high (“medium & high” (Pe>=0.2; or Pe<0.2 and membrane retention>=20%))”.
Regarding `Cc1c(-c2ccc(N3CCC(N4CCNCC4)CC3)nc2C(C)C)cn2ccnc2c1C` [Example 7, 6-[2-isopropyl-6-(4-piperazin-1-yl-1-piperidyl)-3-pyridyl]-7,8-dimethyl-imidazo[1,2-a]pyridine], on human TLR8, the IC50 worked out at 8.6 nM. In data set [1], the “Membrane Retention” value came to 20.4%; the Papp at 4 h came out at 1.2 ×10⁻⁶ cm/s; the PAMPA category result was “medium & high (“medium & high” (Pe>=0.2; or Pe<0.2 and membrane retention>=20%))”.
With `Cc1cc(-c2ccc(N3CCC(N4CCNCC4)CC3)nc2C(C)C)cn2ccnc12` [Example 2, 6-[2-isopropyl-6-(4-piperazin-1-yl-1-piperidyl)-3-pyridyl]-8-methyl-imidazo[1,2-a]pyridine], the IC50 at human TLR8 stood at 1.3 nM. In addition, in data set [1], the “Membrane Retention” value stood at 22.73%; the Papp at 4 h worked out at 0.87 ×10⁻⁶ cm/s; the PAMPA category entry was “medium & high (“medium & high” (Pe>=0.2; or Pe<0.2 and membrane retention>=20%))”.
Consider `Cc1cn2cc(-c3ccc(N4CCC(N5CCNCC5)CC4)nc3C(F)F)cc(C)c2n1` [Example 11, 6-[2-(difluoromethyl)-6-(4-piperazin-1-yl-1-piperidyl)-3-pyridyl]-2,8-dimethyl-imidazo[1,2-a]pyridine], for which, on human TLR8, the IC50 turned out to be 16.8 nM. Further, in data set [1], the “Membrane Retention” value worked out at 9.47%; the Papp at 4 h was 0.84 ×10⁻⁶ cm/s; the PAMPA category entry was “medium & high (“medium & high” (Pe>=0.2; or Pe<0.2 and membrane retention>=20%))”.
Turning to `COc1nc(N2CCC(N3CCNCC3)CC2)ccc1-c1cc(C)c2nccn2c1` [Example 25, 6-[2-methoxy-6-(4-piperazin-1-yl-1-piperidyl)-3-pyridyl]-8-methyl-imidazo[1,2-a]pyridine], the IC50 on human TLR8 came out at 11.2 nM.
Consider `Cc1cc(-c2cc(C)c3nccn3c2)cnc1N1CCC(N2CCN(C)CC2)CC1` [Example 9, 8-methyl-6-[5-methyl-6-[4-(4-methylpiperazin-1-yl)-1-piperidyl]-3-pyridyl]imidazo[1,2-a]pyridine], for which, at human TLR8, the IC50 was 10.7 nM. Further, in data set [1], the “Membrane Retention” value is 49%; the Papp at 4 h was found to be 0.88 ×10⁻⁶ cm/s; the PAMPA category result is “medium & high (“medium & high” (Pe>=0.2; or Pe<0.2 and membrane retention>=20%))”.
With `Cc1cn2cc(-c3ccc(N4CCNC[C@H]4CO)nc3C(C)C)cc(C)c2n1` [Example 5, [(2S)-1-[5-(2,8-dimethylimidazo[1,2-a]pyridin-6-yl)-6-isopropyl-2-pyridyl]piperazin-2-yl]methanol], at human TLR8, the IC50 was found to be 30.4 nM. Besides, in data set [1], the “Membrane Retention” value is 17.82%; the Papp at 4 h came out at 2.1 ×10⁻⁶ cm/s; the PAMPA category result is “medium & high (“medium & high” (Pe>=0.2; or Pe<0.2 and membrane retention>=20%))”.
